US10787483B2, “Antimicrobial peptidomimetics” (Agency for Science, Technology and Research, priority 2014, dated 2020)
Values after ≈ are worked out from the molar mass of the structure shown. Read-outs that look alike come from different tables or passages of the source. Square brackets hold non-standard residues; d marks the D form. Peptide text beside a SMILES is read from it. * marks the point of attachment. ξ: configuration not given here. Phe(4-guanidino) = N=C(N)Nc1ccc(C[C@H](N)C(=O)O)cc1; Bip = N[C@@H](Cc1ccc(-c2ccccc2)cc1)C(=O)O; ξpGlu = O=C1CCC(C(=O)O)N1; Agmatine = N=C(N)NCCCCN*; Orn = NCCC[C@H](N)C(=O)O

Key:
MRSA (ATCC 33591) = assay: MIC determination by broth microdilution vs. MRSA (ATCC 33591); assay type: cell-based, Staphylococcus aureus; conditions: for MIC: Staphylococcus aureus
Experimental: (§1) Using a sterile loop, 3 to 5 isolated colonies of bacteria of the same morphological appearance are selected from the overnight agar plate. The colonies are transferred into a conical flask containing 5 mL of liquid medium (i.e. Mueller-Hinton broth). The broth is incubated at 37° C. in a shaker at 220 rpm until it reaches a turbidity that is equal to the turbidity of a McFarland Standard 0.5 (correspond to 1×10^8 cfu/mL). This culture growth step will require 1-2 hours depending on the bacteria tested.
During this pause period, an antibacterial dilution is prepared. Therefore an antibacterial stock solution is diluted in Mueller-Hinton broth. The concentration of DMSO is kept at 5%. 100 μL of the antibacterial solution are dispensed into the first well of a row. 50 μL of medium containing 0.5% of DMSO are dispensed to the rest of the wells. A 2-fold serial dilution is achieved by transferring 50 μL from the first well (containing the highest concentration of antibacterial) into the second well, and continuing like this until the 10th well in the row. The final 50 μL are discarded so that every well has 50 μL of each antibacterial dilution.
The 11th well was used as the growth control well (medium with bacterial inoculums, no antibacterial) while the 12th well was the sterility control well (medium only).
The bacterial suspension prepared above is mixed thoroughly, and diluted by a factor of 1:100 in the sterile medium. Each well and the growth control well is inoculated with 50 μL of the bacterial suspension. […] To the sterility control well 50 μL of sterile medium are added in place of the bacterial suspension. 10 μL aliquot from the growth control well is removed immediately after inoculating the plate and pipetted it into a sterile Eppendorf tube holding 990 μL of sterile broth. It is mixed well by vortexing. This suspension is further diluted (1:10) by pipetting 100 μL into 900 μL of sterile broth and mixing it well. 100 μL of each of the two dilutions are plated onto two different antibacterial-free agar plates. A sterile cell spreader is used to spread the liquid. Then the plate is sealed with a transparent adhesive film. The microtiter plate and agar plates are incubated at 37° C. for 16-20 hours or until satisfactory growth is obtained. The colonies on the agar plate are counted the next day to verify that the right number of cfu was inoculated. The plate is agitated in the SpectraMax spectrophotometer for 90 s and the OD600 for all the wells in the plate is recorded.

S. aureus (ATCC 29213) [1] = assay: Bactericidal activity at MIC after dilution of the antibacterial (FIG. 2); assay type: cell-based, Staphylococcus aureus; conditions: treatment at its MIC
S. aureus (ATCC 29213) [2] = assay: MIC determination by broth microdilution vs. S. aureus (ATCC 29213); assay type: cell-based; conditions: Staphylococcus aureus
Experimental: as §1
(§2) During this pause period, an antibacterial dilution is prepared. Therefore an antibacterial stock solution is diluted in Mueller-Hinton broth. The concentration of DMSO is kept at 5%. 100 μL of the antibacterial solution are dispensed into the first well of a row. 50 μL of medium containing 0.5% of DMSO are dispensed to the rest of the wells. […]
(§3) The bacterial suspension prepared above is mixed thoroughly, and diluted by a factor of 1:100 in the sterile medium. […] The colonies on the agar plate are counted the next day to verify that the right number of cfu was inoculated. The plate is agitated in the SpectraMax spectrophotometer for 90 s and the OD600 for all the wells in the plate is recorded.

S. aureus (RN 4220) = assay: MIC determination by broth microdilution vs. S. aureus (RN 4220); assay type: cell-based; conditions: Staphylococcus aureus
Experimental: as §1, §2, §3

E. faecalis = assay: Antibacterial activity on E. faecalis; assay type: cell-based
Experimental: as §1, §2, §3

[3] = system: Strep. pyogenes (ARC 838); assay: MIC determination by broth microdilution vs. Strep. pyogenes (ARC 838); assay type: cell-based; conditions: Streptococcus pyogenes
Experimental: as §1, §2, §3

[4] = system: Strep. pneumoniae (ATCC 49619); assay: MIC determination by broth microdilution vs. Strep. pneumoniae (ATCC 49619); assay type: cell-based, Streptococcus pneumoniae
Experimental: as §1, §2, §3

[5] = MRSA (ATCC 33591), read-out: MIC

| SMILES | MIC (MRSA (ATCC 33591); [5]) [µM] | also measured |
| --- | --- | --- |
| N=C(N)NCCCCNC(=O)[C@H](Cc1ccc(-c2ccccc2)cc1)NC(=O)[C@H](CCCCNC(=N)N)NC(=O)[C@@H](N)Cc1ccc(-c2ccccc2)cc1 [Compound 19] | 6.25 (≈ 4.67 µg/mL) | – |
| CC(=O)NC[C@H]1CN(c2ccc(N3CCOCC3)c(F)c2)C(=O)O1 [Linezolid, reference compound] | – | mode of action (regrowth after dilution of the antibacterial) (S. aureus (ATCC 29213) [1]): bacteriostatic |
| N=C(N)NCCC[C@H](NC(=O)[C@@H](N)Cc1ccc(-c2ccccc2)cc1)C(=O)N[C@@H](Cc1ccc(-c2ccccc2)cc1)C(=O)N[C@H]1CC[C@@H](NC(=N)N)CC1 [Compound 6] | 6.25 (≈ 4.74 µg/mL) | – |
| N=C(N)NCCCCNC(=O)[C@H](Cc1ccc(-c2ccccc2)cc1)NC(=O)CN(CCCNC(=N)N)C(=O)[C@@H](N)Cc1ccc(-c2ccccc2)cc1 [Compound 21] | 6.25 (≈ 4.58 µg/mL) | – |
| N=C(N)NCCCCNC(=O)[C@H](Cc1ccc(-c2ccccc2)cc1)NC(=O)[C@H](CCCNC(=N)N)NC[C@@H](N)Cc1ccc(-c2ccccc2)cc1 [Compound 29] | 3.12 (≈ 2.25 µg/mL) | – |
| N=C(N)NCCCCNC(=O)[C@H](Cc1ccc(-c2ccccc2)cc1)NC(=O)[C@H](CCCNC(=N)N)NC(=O)[C@H](N)Cc1ccc(-c2ccccc2)cc1 [Compound 4] | 25 (≈ 18.3 µg/mL) | – |
| N=C(N)NCCCCNC(=O)[C@@H](Cc1ccc(-c2ccccc2)cc1)NC(=O)[C@H](CCCNC(=N)N)NC(=O)[C@@H](N)Cc1ccc(-c2ccccc2)cc1 [Compound 2] | 12.5 (≈ 9.16 µg/mL) | – |
| N=C(N)NCCCCNC(=O)[C@H](Cc1ccc(-c2ccccc2)cc1)NC(=O)[C@H](CNC(=N)N)NC(=O)[C@@H](N)Cc1ccc(-c2ccccc2)cc1 [Compound 16] | 25 (≈ 17.6 µg/mL) | – |
| CN(C(=O)[C@H](CCCNC(=N)N)NC(=O)[C@@H](N)Cc1ccc(-c2ccccc2)cc1)[C@@H](Cc1ccc(-c2ccccc2)cc1)C(=O)NCCCCNC(=N)N [Compound 18] | 6.25 (≈ 4.67 µg/mL) | – |
| N=C(N)NCCCCNC(=O)[C@H](Cc1ccc(-c2ccccc2)cc1)NC(=O)[C@H](CCCN)NC(=O)[C@@H](N)Cc1ccc(-c2ccccc2)cc1 [Compound 14] (H-[Bip]-[Orn]-[Bip]-Agmatine) | 12.5 (≈ 8.64 µg/mL) | – |
| N=C(N)NCCCCNC(=O)[C@H](Cc1ccc(-c2ccccc2)cc1)NC(=O)[C@H](CCCNC(=N)N)NC(=O)[C@@H](N)Cc1ccc(Cl)cc1 [Compound 22] | 25 (≈ 17.3 µg/mL) | – |
| N=C(N)NCCCCNC(=O)[C@H](Cc1ccc(-c2ccccc2)cc1)NC(=O)C[C@H](CCCNC(=N)N)NC(=O)[C@@H](N)Cc1ccc(-c2ccccc2)cc1 [Compound 20] | 6.25 (≈ 4.67 µg/mL) | – |
| N=C(N)NCCCCNC(=O)[C@H](Cc1ccccc1)NC(=O)[C@H](CCCNC(=N)N)NC(=O)[C@@H](N)Cc1ccc(-c2ccccc2)cc1 [Compound 8] (H-[Bip]-Arg-Phe-Agmatine) | 25 (≈ 16.4 µg/mL) | – |
| N=C(N)NCCCCNC(=O)[C@H](Cc1ccc(-c2ccccc2)cc1)NC[C@H](CCCNC(=N)N)NC(=O)[C@@H](N)Cc1ccc(-c2ccccc2)cc1 [Compound 28] | 12.5 (≈ 8.99 µg/mL) | – |
| N=C(N)NCCCCNC(=O)CN(Cc1ccc(-c2ccccc2)cc1)C(=O)[C@@H](CCCNC(=N)N)NC(=O)[C@H](N)Cc1ccc(-c2ccccc2)cc1 [Compound 11] | – | MIC (MRSA (ATCC 33591)): 12.5 µM (≈ 9.16 µg/mL) |
| N=C(N)NCCC[C@H](NC(=O)[C@@H](N)Cc1ccc(-c2ccccc2)cc1)C(=O)N[C@@H](Cc1ccc(-c2ccccc2)cc1)C(=O)NCCCCNC(N)=O [Compound 5] | 25 (≈ 18.3 µg/mL) | – |
| N=C(N)NCCCCNC(=O)[C@H](Cc1ccc(-c2ccccc2)cc1)NC(=O)[C@H](CCCCN)NC(=O)[C@@H](N)Cc1ccc(-c2ccccc2)cc1 [Compound 13] (H-[Bip]-Lys-[Bip]-Agmatine) | 6.25 (≈ 4.41 µg/mL) | – |
| N=C(N)NCCCCNC(=O)CN(Cc1ccc(-c2ccccc2)cc1)C(=O)[C@H](CCCNC(=N)N)NC(=O)[C@@H](N)Cc1ccc(-c2ccccc2)cc1 [Compound 10] | – | MIC (MRSA (ATCC 33591)): 3.12 µM (≈ 2.29 µg/mL) |
| CCCCCCCCCC(=O)N[C@@H](Cc1ccc(-c2ccccc2)cc1)C(=O)N[C@@H](CCCNC(=N)N)C(=O)N[C@@H](Cc1ccc(-c2ccccc2)cc1)C(=O)NCCCCNC(=N)N [Compound 25] | 12.5 (≈ 11.1 µg/mL) | – |
| N=C(N)NCCCCNC(=O)[C@H](Cc1ccc(Cl)cc1)NC(=O)[C@H](CCCNC(=N)N)NC(=O)[C@@H](N)Cc1ccc(-c2ccccc2)cc1 [Compound 12] | 12.5 (≈ 8.64 µg/mL) | – |
| N=C(N)NCCCCNC(=O)[C@H](Cc1ccc2ccccc2c1)NC(=O)[C@H](CCCNC(=N)N)NC(=O)[C@@H](N)Cc1ccc(-c2ccccc2)cc1 [Compound 9] | 50 (≈ 35.3 µg/mL) | – |
| N=C(N)NCCCCNC(=O)[C@H](Cc1ccc(-c2ccccc2)cc1)NC(=O)[C@H](CCCNC(=N)N)NC(=O)[C@@H](N)Cc1ccc(-c2ccccc2)cc1 [Compound 1a, Bip-Arg-Bip-agmantine] | – | mode of action (regrowth after dilution of the antibacterial) (S. aureus (ATCC 29213) [1]): bactericidal mode of action; MIC value compared with Linezolid and Daptomycin (MRSA (ATCC 33591); S. aureus tests (ATCC 33591, RN 4220, ATCC 29123)): lower MIC value; MIC (MRSA (ATCC 33591); MRSA (ATCC 33591), read-out: MIC value): 3.12 µM (≈ 2.29 µg/mL); MIC (MRSA (ATCC 33591); MRSA (ATCC 33591), read-out: MIC(μM) (ATCC 33591)): 3.12 µM (≈ 2.29 µg/mL); MIC (S. aureus (ATCC 29213) [2]; ATCC 29123 / ATCC 29213, S. aureus (ATCC 29123) as printed, read-out: MIC value): 3.12 µM (≈ 2.29 µg/mL); MIC (S. aureus (ATCC 29213) [2]; ATCC29213, S. aureus (ATCC 29213), read-out: MIC(μM) (ATCC 29213)): 3.12 µM (≈ 2.29 µg/mL); MIC (S. aureus (RN 4220)): 3.12 µM (≈ 2.29 µg/mL); activity on E. faecalis (E. faecalis): showed activity; MIC [3]: 6.25 µM (≈ 4.58 µg/mL); MIC compared with Daptomycin ([4]; Strep. tests (Strep. pneumoniae ATCC 49619, Strep. pyogenes ARC 838)): at least improvement over Daptomycin; MIC ([4]; Streptococcus pneumoniae, ATCC49619, Strep. pneumoniae (ATCC 49619)): 6.25 µM (≈ 4.58 µg/mL) |
| N=C(N)NCCC[C@H](NC(=O)[C@@H](N)Cc1ccc(-c2ccccc2)cc1)C(=O)N[C@@H](Cc1ccc(-c2ccccc2)cc1)C(=O)N[C@H]1CC[C@H](NC(=N)N)CC1 [Compound 7] | 6.25 (≈ 4.74 µg/mL) | – |
| C/N=C(/NC)NCCC[C@H](NC(=O)[C@@H](N)Cc1ccc(-c2ccccc2)cc1)C(=O)N[C@@H](Cc1ccc(-c2ccccc2)cc1)C(=O)NCCCCNC(=N)N [Compound 15] | 12.5 (≈ 9.51 µg/mL) | – |
| CC(C)(C)c1ccc(-c2ccc(C[C@H](NC(=O)[C@H](CCCNC(=N)N)NC(=O)[C@@H](N)Cc3ccc(-c4ccc(C(C)(C)C)cc4)cc3)C(=O)NCCCCNC(=N)N)cc2)cc1 [Compound 26] | 12.5 (≈ 10.6 µg/mL) | – |
| N=C(N)NCCCCNC(=O)[C@H](Cc1ccc(-c2ccccc2)cc1)NC(=O)[C@H](Cc1ccc(NC(=N)N)cc1)NC(=O)[C@@H](N)Cc1ccc(-c2ccccc2)cc1 [Compound 17] (H-[Bip]-[Phe(4-guanidino)]-[Bip]-Agmatine) | 6.25 (≈ 4.88 µg/mL) | – |
| CC(=O)N[C@@H](Cc1ccc(-c2ccccc2)cc1)C(=O)N[C@@H](CCCNC(=N)N)C(=O)N[C@@H](Cc1ccc(-c2ccccc2)cc1)C(=O)NCCCCNC(=N)N [Compound 23] | 12.5 (≈ 9.69 µg/mL) | – |
| N=C(N)NCCCCNC(=O)[C@H](Cc1ccc(-c2ccccc2)cc1)NC(=O)[C@H](CCCNC(=N)N)NC(=O)[C@H](Cc1ccc(-c2ccccc2)cc1)NC(=O)C1CCC(=O)N1 (stereo partly shown) [Compound 24] ([ξpGlu][Bip]R[Bip]-Agmatine) | 12.5 (≈ 10.6 µg/mL) | – |
| N=C(N)NCCCCNC(=O)[C@H](Cc1ccc(-c2ccccc2)cc1)NC(=O)[C@@H](CCCNC(=N)N)NC(=O)[C@@H](N)Cc1ccc(-c2ccccc2)cc1 [Compound 3] | 25 (≈ 18.3 µg/mL) | – |
| N=C(N)NCCCCNC[C@H](Cc1ccc(-c2ccccc2)cc1)NC(=O)[C@H](CCCNC(=N)N)NC(=O)[C@@H](N)Cc1ccc(-c2ccccc2)cc1 [Compound 27] | 6.25 (≈ 4.49 µg/mL) | – |
